{"source": "patent US20250263436A1", "about": "“BROAD-SPECTRUM ANTIVIRAL DRUG FOR ENTEROVIRUS, AND APPLICATION” (WUHAN INSTITUTE OF VIROLOGY, CHINESE ACADEMY OF SCIENCES, priority 2020, published 2025)", "key": {"EV71 [1]": {"test_system": "EV71", "assay": "Inhibition of EV71 in Vero cells (viral RNA, qRT-PCR)", "format": "cell-based, enterovirus 71 (EV71)", "conditions": "anti-EV71 in Vero cells", "method": "(1) Different cells were plated in a 24-well plate.\n(2) When the cells grew to a confluence of 70%-80%, the DMEM medium containing 10% serum was replaced with a DMEM medium containing 2% serum (the DMEM medium containing 2% serum was added in each well at an amount of 0.5 mL), and 5 μL of EV71 virus of 1×10^6 PFU/mL was added to each well.\n(3) After 1 h, different polypeptides (RQ or control TAT) with final concentrations of 0.3125 μM, 0.625 μM, 1.25 μM, 2.5 μM, and 5 μM were added respectively. The group without polypeptide added was used as a control.\n(4) The samples were collected 24 h after the infection of EV71 virus, and RNA was extracted with the total RNA extraction kit.\n(5) The supernatant was discarded, then 350 μL of TRK lysate was added to each well, and the plate was put on a shaker for 5 min.\n(6) 350 μL of 70% ethanol (DEPC) was added to each well, and then the plate was put on a shaker for 5 min.\n(7) The solution in each well was transferred to a RNA extraction column for 1 min of centrifugation at 12000 g.\n(8) The solution obtained in the recovery tube was reloaded on the column again for 1 min of centrifugation at 12000 g.\n(9) RNA washing buffer 1 was added in the column for 30 s of centrifugation at 12000 g.\n(10) RNA washing buffer 2 was added in the column for 1 min of centrifugation at 12000 g.\n(11) Step (10) was repeated.\n(12) The column alone was centrifuged at 12000 g for 2 min to completely remove the residual RNA washing buffer.\n(13) 50 μL of DEPC water was added to the column for 2 min of centrifugation at 12000 g.\n(14) 2 μL of RNA sample was subjected to a fluorescence quantitative experiment using the one step qRT-PCR kit.\n(1) Vero E6 cells were plated in a 24-well plate.\n(3) After 1 h, different polypeptides (LQ or SQ) with final concentrations of 0.3125 μM, 0.625 μM, 1.25 μM, 2.5 μM, and 5 μM were added respectively. The group without polypeptide added was used as a control."}, "Vero cells": {"test_system": "Vero cells", "assay": "Cytotoxicity of polypeptides in Vero cells (CCK-8)", "format": "cell-based", "conditions": "Vero cells, 24 h", "method": "(§1) Therefore, this standard was testified by cytotoxicity assay, and the cells without any treatment were used as a control group.\n(§2) (1) Vero cells were plated in a 96-well plate at 100 μL per well.\n(§3) (2) When the cells grew to a confluence of 70%-80%, the DMEM medium containing 10% serum was replaced with a DMEM medium containing 2% serum, and a certain concentration gradient of polypeptide RQ or LQ or SQ was added, so that the final concentrations of the polypeptide in the wells were 0.073242 μM, 0.146484 μM, 0.292969 μM, 0.585938 μM, 1.171875 μM, 2.34375 μM, 4.6875 μM, 9.375 μM, 18.75 μM, 37.5 μM, 75 μM and 150 μM, respectively.\n(§4) (3) The samples were collected 24 h after the addition of the polypeptide, and then 10 μL of live cell detection reagent CCK-8 was added to each well and mixed well.\n(§5) (4) The plate was placed at 37° C. for 2 h.\n(§6) (5) The absorbance value at OD450 was detected by a microplate reader.\n(§7) The CC50 of each polypeptide was calculated taking the cell viability of untreated cells as 100%."}, "[2]": {"assay": "Cytotoxicity of polypeptides in Vero cells (CCK-8)", "format": "cell-based", "method": "as §1, §2, §3, §4, §5, §6, §7"}, "EV71 [3]": {"test_system": "EV71", "assay": "Inhibitory activity on EV71 in RD cells by CCK8 method", "format": "cell-based, enterovirus 71 (EV71)", "conditions": "for IC50: EV71 in RD cells, CCK8 method; for Inhibition rate on EV71 virus (%): RD cells, 0.1 MOI, 24 h, CCK8", "method": "(1) RD cells were plated in a 96-well plate at 100 μL per well.\n(2) When the cells grew to a confluence of 70%-80%, the DMEM medium containing 10% serum was replaced with a DMEM medium containing 2% serum.\n(3) The polypeptide drug was gradiently diluted with the DMEM containing 2% FBS into concentrations of 0.15625 μM, 0.3125 μM, 0.625 μM, 1.25 μM, 2.5 μM, and 5 μM, and then added to a new 96-well plate at 100 μL per well, with 3 replicate wells for each concentration.\n(4) The diluted virus was added to the above wells at 100 μL per well. The wells with no drug and no virus added and the wells with no drug but virus added were set as controls respectively, with a final concentration of virus of 0.1 MOI.\n(4) The mixture was transferred into the 96-well plate plated with cells for another 24 h of culture, and the inhibitory activity of the polypeptide on the virus was determined by a CCK8 kit.\n(5) The inhibition rates of different concentrations of the polypeptides on virus infection were calculated according to a calculation formula of: inhibition rate of polypeptide=(well with drug-well with virus)×100%/(well with no drug-well with virus).\n(3) The polypeptide drug was gradiently diluted with the DMEM containing 2% FBS into concentrations of 0.15625 μM, 0.3125 μM, 0.625 μM, 1.25 μM, 2.5 μM, and 5 μM, and then added to a new 96-well plate at 100 μL per well, with 3 replicate wells for each concentration. (4) The diluted virus was added to the above wells at 100 μL per well. The wells with no drug and no virus added and the wells with no drug but virus added were set as controls respectively, with a final concentration of virus of 0.1 MOI."}}, "note": "Several values for one entry are separate records, joined by “and”; a condition that tells them apart may be missing. Equal values may be shown once. Where no end group is shown, it is not given here.", "data": [{"compound": "CC[C@H](C)[C@H](NC(=O)[C@H](C)NC(=O)[C@H](CO)NC(=O)[C@H](CCCNC(=N)N)NC(=O)[C@H](CC(N)=O)NC(=O)[C@H](CC(N)=O)NC(=O)[C@H](Cc1ccc(O)cc1)NC(=O)[C@H](CCC(=O)O)NC(=O)[C@H](CCCNC(=N)N)NC(=O)[C@@H](NC(=O)[C@H](CC(C)C)NC(=O)CNC(=O)[C@H](CO)NC(=O)CNC(=O)[C@H](CCCNC(=N)N)NC(=O)[C@H](CCCNC(=N)N)NC(=O)[C@H](CCCNC(=N)N)NC(=O)[C@H](CCC(N)=O)NC(=O)[C@H](CCCNC(=N)N)NC(=O)[C@H](CCCNC(=N)N)NC(=O)[C@H](CCCCN)NC(=O)[C@H](CCCCN)NC(=O)[C@H](CCCNC(=N)N)NC(=O)CNC(=O)[C@@H](N)Cc1ccc(O)cc1)[C@@H](C)CC)C(=O)NCC(=O)N[C@@H](CC(N)=O)C(=O)N[C@H](C(=O)N[C@H](C(=O)N[C@@H](CCC(=O)O)C(=O)N[C@@H](C)C(=O)N[C@@H](CC(C)C)C(=O)N[C@@H](Cc1ccccc1)C(=O)N[C@@H](CCC(N)=O)C(=O)O)[C@@H](C)CC)[C@@H](C)O", "note": "[LQ]", "values": [{"measurement": "IC50", "setting": "EV71 [1]", "value": 2260, "unit": "nM"}, {"measurement": "Cell viability (%)", "setting": "Vero cells; polypeptide 0.073242 μM", "value": "105.9% and 97.02%"}, {"measurement": "Cell viability (%)", "setting": "Vero cells; polypeptide 0.146484 μM", "value": "104.7744% and 101.9913%"}, {"measurement": "Cell viability (%)", "setting": "Vero cells; polypeptide 0.292969 μM", "value": "106.5265% and 104.7619%"}, {"measurement": "Cell viability (%)", "setting": "Vero cells; polypeptide 0.585938 μM", "value": "110.5563% and 108.0087%"}, {"measurement": "Cell viability (%)", "setting": "Vero cells; polypeptide 1.171875 μM", "value": "115.1555% and 110.4762%"}, {"measurement": "Cell viability (%)", "setting": "Vero cells; polypeptide 2.34375 μM", "value": "106.3075% and 107.1861%"}, {"measurement": "Cell viability (%)", "setting": "Vero cells; polypeptide 4.6875 μM", "value": "104.8489% and 112.5108%"}, {"measurement": "Cell viability (%)", "setting": "Vero cells; polypeptide 9.375 μM", "value": "119.5795% and 113.5931%"}, {"measurement": "Cell viability (%)", "setting": "Vero cells; polypeptide 18.75 μM", "value": "115.6373% and 110.3247%"}, {"measurement": "Cell viability (%)", "setting": "Vero cells; polypeptide 37.5 μM", "value": "99.1853% and 97.1429%"}, {"measurement": "Cell viability (%)", "setting": "Vero cells; polypeptide 75 μM", "value": "108.2318% and 87.6084% and 90.8658%"}, {"measurement": "Cell viability (%)", "setting": "Vero cells; polypeptide 150 μM", "value": "83.0968% and 80.9091%"}, {"measurement": "CC50 at 24 h", "setting": "[2]; African green monkey, Table 1 (Vero cells)", "value": "> 150000", "unit": "nM"}, {"measurement": "viability at 24 h, 0.073242 µM", "setting": "[2]; Vero cells, polypeptide 0.073242 μM, 24 h, read-out: Cell viability (%)", "value": 100, "unit": "%"}, {"measurement": "viability at 24 h, 0.146484 µM", "setting": "[2]; Vero cells, polypeptide 0.146484 μM, 24 h, read-out: Cell viability (%)", "value": 103, "unit": "%"}, {"measurement": "viability at 24 h, 0.292969 µM", "setting": "[2]; Vero cells, polypeptide 0.292969 μM, 24 h, read-out: Cell viability (%)", "value": 112, "unit": "%"}, {"measurement": "viability at 24 h, 0.585938 µM", "setting": "[2]; Vero cells, polypeptide 0.585938 μM, 24 h, read-out: Cell viability (%)", "value": 110, "unit": "%"}, {"measurement": "viability at 24 h, 1.17188 µM", "setting": "[2]; Vero cells, polypeptide 1.171875 μM, 24 h, read-out: Cell viability (%)", "value": 111, "unit": "%"}, {"measurement": "viability at 24 h, 2.34375 µM", "setting": "[2]; Vero cells, polypeptide 2.34375 μM, 24 h, read-out: Cell viability (%)", "value": 105, "unit": "%"}, {"measurement": "viability at 24 h, 4.6875 µM", "setting": "[2]; Vero cells, polypeptide 4.6875 μM, 24 h, read-out: Cell viability (%)", "value": 111, "unit": "%"}, {"measurement": "viability at 24 h, 9.375 µM", "setting": "[2]; Vero cells, polypeptide 9.375 μM, 24 h, read-out: Cell viability (%)", "value": 114, "unit": "%"}, {"measurement": "viability at 24 h, 18.75 µM", "setting": "[2]; Vero cells, polypeptide 18.75 μM, 24 h, read-out: Cell viability (%)", "value": 109, "unit": "%"}, {"measurement": "viability at 24 h, 37.5 µM", "setting": "[2]; Vero cells, polypeptide 37.5 μM, 24 h, read-out: Cell viability (%)", "value": 117, "unit": "%"}, {"measurement": "viability at 24 h, 150 µM", "setting": "[2]; Vero cells, polypeptide 150 μM, 24 h, read-out: Cell viability (%)", "value": 72.2, "unit": "%"}]}, {"compound": "YGRKKRRQRRRGSGNTIEALFQ [NTQ]", "values": [{"measurement": "IC50", "setting": "EV71 [3]", "value": 2280, "unit": "nM"}, {"measurement": "Inhibition rate on EV71 virus (%)", "setting": "EV71 [3]; polypeptide 0.15625 μM", "value": "2.654% and 4.744% and 5.743%"}, {"measurement": "Inhibition rate on EV71 virus (%)", "setting": "EV71 [3]; polypeptide 0.3125 μM", "value": "14.83% and 10.2542% and 13.3898%"}, {"measurement": "Inhibition rate on EV71 virus (%)", "setting": "EV71 [3]; polypeptide 0.625 μM", "value": "20.84% and 30.339% and 24.339%"}, {"measurement": "Inhibition rate on EV71 virus (%)", "setting": "EV71 [3]; polypeptide 1.25 μM", "value": "39.17% and 47.6271% and 50.8202%"}, {"measurement": "Inhibition rate on EV71 virus (%)", "setting": "EV71 [3]; polypeptide 2.5 μM", "value": "45.42% and 51.9492% and 59.661%"}, {"measurement": "Inhibition rate on EV71 virus (%)", "setting": "EV71 [3]; polypeptide 5 μM", "value": "68.27% and 52.5424% and 61.6949%"}]}, {"compound": "YGRKKRRQRRRGSGTIEALFQ [TQ]", "values": [{"measurement": "IC50", "setting": "EV71 [3]", "value": 1760, "unit": "nM"}, {"measurement": "Inhibition rate on EV71 virus (%)", "setting": "EV71 [3]; polypeptide 0.15625 μM", "value": "3.314% and 5.356% and 7.23%"}, {"measurement": "Inhibition rate on EV71 virus (%)", "setting": "EV71 [3]; polypeptide 0.625 μM", "value": "33.3736% and 28.4011% and 30.3085%"}, {"measurement": "Inhibition rate on EV71 virus (%)", "setting": "EV71 [3]; polypeptide 1.25 μM", "value": "35.3209% and 40.3898% and 46.2471%"}, {"measurement": "Inhibition rate on EV71 virus (%)", "setting": "EV71 [3]; polypeptide 2.5 μM", "value": "59.3508% and 67.3559% and 55.2235%"}, {"measurement": "Inhibition rate on EV71 virus (%)", "setting": "EV71 [3]; polypeptide 5 μM", "value": "71.3029% and 65.3559% and 69.2301%"}]}]}
